From PMC5659893 (2017)

Test: second and third wash supernates of 1×10^8 RBCs/mL
Settings: human, 37°C, up to 24 hours

not cleaved | Substance
more than 90% recovered after 24 hours | ILPWKWPWWPWRR-NH2
more than 90% recovered after 24 hours | RRGWALRLVLAY-NH2
